Common to all, as to experiment: DSF 100 kinase selectivity screen;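 note: compound tested at 20 µM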
What all share (format): binding

Test [1] concerns the target T1, ~100 representative kinases (Homo sapiens, UniProt Q5VT25).
T1 construct: Recombinant protein kinase domains with a concentration of 2 μM
Conditions: Protein CDC42BPA; average of three replicates. In a few lines: (§1)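 Each kinase domain, at 2 μM, is mixed with 20 μM test compound and SYPRO Orange in Hepes (20 mM, pH 7.5) with 500 mM NaCl. Temperature is then raised at 3°C/min and fluorescence-monitored unfolding yields the melting temperature change, ΔTm in degrees Celsius.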

Test [2] deals with T2, ~100 representative kinases (Homo sapiens, UniProt Q96SB4).
T2 construct: Recombinant protein kinase domains with a concentration of 2 μM
Conditions: Protein SRPK1; DSF; average of three replicates. In a few lines: as §1

Test [3] deals with T3, ~100 representative kinases (Homo sapiens, UniProt P54762).
T3 construct: Recombinant protein kinase domains with a concentration of 2 μM
T3 sequence (P54762 18-984): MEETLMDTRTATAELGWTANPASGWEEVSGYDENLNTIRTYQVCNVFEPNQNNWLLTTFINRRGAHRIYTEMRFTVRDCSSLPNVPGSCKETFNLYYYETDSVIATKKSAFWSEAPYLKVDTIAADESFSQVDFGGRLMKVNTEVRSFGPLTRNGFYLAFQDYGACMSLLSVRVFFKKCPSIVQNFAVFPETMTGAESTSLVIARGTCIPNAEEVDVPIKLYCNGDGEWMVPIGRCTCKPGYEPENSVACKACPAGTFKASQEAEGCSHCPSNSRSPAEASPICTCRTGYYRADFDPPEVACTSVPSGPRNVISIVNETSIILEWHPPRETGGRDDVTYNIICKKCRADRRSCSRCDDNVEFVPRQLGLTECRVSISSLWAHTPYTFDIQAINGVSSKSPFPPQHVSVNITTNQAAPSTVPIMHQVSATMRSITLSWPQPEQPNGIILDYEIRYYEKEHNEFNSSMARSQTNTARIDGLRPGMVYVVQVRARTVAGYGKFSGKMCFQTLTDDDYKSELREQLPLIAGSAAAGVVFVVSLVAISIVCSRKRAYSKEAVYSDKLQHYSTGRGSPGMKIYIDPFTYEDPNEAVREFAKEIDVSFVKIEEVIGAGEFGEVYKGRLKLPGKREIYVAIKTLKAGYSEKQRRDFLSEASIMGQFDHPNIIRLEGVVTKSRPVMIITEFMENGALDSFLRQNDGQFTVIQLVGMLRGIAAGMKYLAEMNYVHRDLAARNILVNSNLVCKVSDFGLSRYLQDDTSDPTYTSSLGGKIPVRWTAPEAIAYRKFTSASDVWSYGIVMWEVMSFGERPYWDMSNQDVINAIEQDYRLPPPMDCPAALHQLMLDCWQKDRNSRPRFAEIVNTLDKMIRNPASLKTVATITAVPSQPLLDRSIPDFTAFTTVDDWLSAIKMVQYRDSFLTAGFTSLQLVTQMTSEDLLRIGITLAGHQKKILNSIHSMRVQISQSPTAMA
The conditions noted are these: Protein EPHB1; average of three replicates. In a few lines:
as §1

In test [4] the target is T4, ~100 representative kinases (Homo sapiens, UniProt P28482).
T4 construct: Recombinant protein kinase domains with a concentration of 2 μM
Conditions: protein MAPK1; average of three replicates. In a few lines:
as §1

For test [5], the target named is T5, ~100 representative kinases (Homo sapiens, UniProt Q99683).
T5 construct: Recombinant protein kinase domains with a concentration of 2 μM
T5 sequence (Q99683 1-1374): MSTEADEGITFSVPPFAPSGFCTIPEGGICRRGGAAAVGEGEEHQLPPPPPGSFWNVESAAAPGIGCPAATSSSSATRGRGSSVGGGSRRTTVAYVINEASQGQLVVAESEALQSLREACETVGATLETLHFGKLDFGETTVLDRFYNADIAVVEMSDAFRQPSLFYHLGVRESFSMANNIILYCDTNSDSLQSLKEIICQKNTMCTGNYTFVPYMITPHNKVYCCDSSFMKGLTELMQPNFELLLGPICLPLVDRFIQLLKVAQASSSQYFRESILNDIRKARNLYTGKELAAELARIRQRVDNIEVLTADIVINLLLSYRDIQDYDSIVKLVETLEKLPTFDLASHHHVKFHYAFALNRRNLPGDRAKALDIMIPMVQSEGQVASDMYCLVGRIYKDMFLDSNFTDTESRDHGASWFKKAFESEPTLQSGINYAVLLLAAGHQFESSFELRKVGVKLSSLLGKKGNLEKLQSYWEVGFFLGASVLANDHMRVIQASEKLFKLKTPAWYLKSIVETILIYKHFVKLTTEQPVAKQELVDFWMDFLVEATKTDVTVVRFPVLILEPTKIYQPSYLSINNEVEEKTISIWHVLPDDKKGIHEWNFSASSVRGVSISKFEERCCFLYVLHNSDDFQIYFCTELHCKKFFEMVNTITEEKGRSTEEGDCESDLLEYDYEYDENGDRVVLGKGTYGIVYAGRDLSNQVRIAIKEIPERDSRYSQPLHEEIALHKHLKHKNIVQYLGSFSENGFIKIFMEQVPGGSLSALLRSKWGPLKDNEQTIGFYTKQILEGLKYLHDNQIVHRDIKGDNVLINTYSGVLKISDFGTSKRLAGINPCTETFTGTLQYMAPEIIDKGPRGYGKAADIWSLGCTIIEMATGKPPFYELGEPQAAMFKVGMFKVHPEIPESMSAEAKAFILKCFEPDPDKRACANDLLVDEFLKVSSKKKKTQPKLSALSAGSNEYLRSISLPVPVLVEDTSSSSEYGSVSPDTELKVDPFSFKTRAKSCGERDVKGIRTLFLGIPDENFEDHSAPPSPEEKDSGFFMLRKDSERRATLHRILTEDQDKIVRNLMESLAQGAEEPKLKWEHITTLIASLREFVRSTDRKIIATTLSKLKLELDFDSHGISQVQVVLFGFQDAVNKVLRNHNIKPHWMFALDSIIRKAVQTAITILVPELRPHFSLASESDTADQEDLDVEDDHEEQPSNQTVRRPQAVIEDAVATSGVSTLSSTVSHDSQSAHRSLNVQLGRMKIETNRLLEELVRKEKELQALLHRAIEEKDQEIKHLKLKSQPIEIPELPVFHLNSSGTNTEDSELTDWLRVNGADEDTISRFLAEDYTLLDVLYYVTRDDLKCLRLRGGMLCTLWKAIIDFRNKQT
Conditions: protein MAP3K5; average of three replicates. The method in brief: as §1

T1 sequence (Q5VT25 whole entry, the tested form may be a part): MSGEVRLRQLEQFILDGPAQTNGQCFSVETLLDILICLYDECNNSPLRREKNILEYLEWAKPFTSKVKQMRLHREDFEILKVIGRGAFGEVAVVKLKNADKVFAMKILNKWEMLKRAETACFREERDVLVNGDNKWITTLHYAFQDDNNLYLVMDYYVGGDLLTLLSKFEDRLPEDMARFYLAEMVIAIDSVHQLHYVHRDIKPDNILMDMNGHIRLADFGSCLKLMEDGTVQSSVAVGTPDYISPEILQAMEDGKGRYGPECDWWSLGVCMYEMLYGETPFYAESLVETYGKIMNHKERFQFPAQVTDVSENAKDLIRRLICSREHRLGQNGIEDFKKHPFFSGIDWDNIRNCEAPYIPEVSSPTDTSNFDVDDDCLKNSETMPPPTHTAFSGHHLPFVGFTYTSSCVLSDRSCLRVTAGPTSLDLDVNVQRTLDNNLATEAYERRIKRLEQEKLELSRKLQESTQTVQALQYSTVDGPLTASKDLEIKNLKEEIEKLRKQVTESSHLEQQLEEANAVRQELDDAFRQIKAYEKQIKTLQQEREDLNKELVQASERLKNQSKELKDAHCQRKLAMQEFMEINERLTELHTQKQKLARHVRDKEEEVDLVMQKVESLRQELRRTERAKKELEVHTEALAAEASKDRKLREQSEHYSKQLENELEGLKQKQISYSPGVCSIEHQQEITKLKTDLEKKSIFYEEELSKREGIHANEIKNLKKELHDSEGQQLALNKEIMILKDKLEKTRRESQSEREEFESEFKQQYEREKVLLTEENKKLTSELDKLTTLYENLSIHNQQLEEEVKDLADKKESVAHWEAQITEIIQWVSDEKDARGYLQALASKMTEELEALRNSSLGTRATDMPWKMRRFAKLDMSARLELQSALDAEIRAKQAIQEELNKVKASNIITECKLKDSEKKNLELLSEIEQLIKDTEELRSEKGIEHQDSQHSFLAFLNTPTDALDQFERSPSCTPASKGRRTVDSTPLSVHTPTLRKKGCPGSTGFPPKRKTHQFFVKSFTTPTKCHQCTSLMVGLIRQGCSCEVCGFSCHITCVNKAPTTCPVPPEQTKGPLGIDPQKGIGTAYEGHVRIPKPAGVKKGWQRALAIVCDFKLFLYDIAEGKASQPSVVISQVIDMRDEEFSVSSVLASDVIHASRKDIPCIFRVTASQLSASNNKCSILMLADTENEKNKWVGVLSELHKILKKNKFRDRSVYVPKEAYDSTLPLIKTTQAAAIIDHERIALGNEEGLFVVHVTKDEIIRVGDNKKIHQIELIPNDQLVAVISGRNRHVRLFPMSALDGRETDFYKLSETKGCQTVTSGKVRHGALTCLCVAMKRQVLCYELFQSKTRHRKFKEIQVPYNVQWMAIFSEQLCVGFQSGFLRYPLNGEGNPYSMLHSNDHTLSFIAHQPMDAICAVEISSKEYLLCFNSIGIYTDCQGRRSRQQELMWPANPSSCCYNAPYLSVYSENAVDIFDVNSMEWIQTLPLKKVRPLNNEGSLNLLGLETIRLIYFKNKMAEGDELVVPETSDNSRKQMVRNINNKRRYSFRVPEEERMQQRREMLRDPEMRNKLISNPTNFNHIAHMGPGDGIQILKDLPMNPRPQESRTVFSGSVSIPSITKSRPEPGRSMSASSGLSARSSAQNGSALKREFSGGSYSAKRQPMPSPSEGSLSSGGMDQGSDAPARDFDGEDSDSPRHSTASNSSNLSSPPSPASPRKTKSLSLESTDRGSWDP
T2 sequence (Q96SB4 whole entry, the tested form may be a part): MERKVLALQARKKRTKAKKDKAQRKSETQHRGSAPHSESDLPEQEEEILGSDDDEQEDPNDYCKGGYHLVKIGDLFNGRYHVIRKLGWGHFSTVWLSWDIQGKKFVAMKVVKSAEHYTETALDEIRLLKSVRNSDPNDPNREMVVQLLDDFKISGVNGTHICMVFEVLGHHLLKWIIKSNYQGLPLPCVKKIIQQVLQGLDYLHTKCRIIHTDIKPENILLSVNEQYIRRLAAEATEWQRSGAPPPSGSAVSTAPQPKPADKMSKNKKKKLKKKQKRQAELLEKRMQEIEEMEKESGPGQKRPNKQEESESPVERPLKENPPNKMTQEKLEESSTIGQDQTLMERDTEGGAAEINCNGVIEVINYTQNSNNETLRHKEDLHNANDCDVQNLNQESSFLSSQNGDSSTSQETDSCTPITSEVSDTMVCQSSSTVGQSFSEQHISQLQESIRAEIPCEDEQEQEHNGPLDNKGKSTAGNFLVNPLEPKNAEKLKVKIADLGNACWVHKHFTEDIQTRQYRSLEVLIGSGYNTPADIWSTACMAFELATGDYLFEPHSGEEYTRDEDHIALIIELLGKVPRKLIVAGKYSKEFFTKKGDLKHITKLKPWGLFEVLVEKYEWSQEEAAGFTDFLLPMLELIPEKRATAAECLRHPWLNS
T4 sequence (P28482 whole entry, the tested form may be a part): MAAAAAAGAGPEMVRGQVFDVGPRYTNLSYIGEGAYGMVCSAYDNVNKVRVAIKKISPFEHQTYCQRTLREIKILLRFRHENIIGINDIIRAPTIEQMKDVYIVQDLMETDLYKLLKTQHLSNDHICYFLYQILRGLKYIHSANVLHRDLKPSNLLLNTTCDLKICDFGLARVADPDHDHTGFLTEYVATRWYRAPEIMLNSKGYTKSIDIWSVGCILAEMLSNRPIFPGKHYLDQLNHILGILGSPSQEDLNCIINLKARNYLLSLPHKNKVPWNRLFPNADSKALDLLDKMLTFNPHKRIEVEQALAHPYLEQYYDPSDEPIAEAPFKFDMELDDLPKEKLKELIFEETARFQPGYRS

Take `Cc1ccc(NC(=O)C2(C(=O)Nc3cccc(-c4c[nH]c5ncnc(N6CCOCC6)c45)c3)CC2)cc1` [Compound 14]: the dTm in test [1] is recorded as -1.21 K; in test [2], 7.30 K; in test [3] it was 3.63 K; in test [4] it was -0.09 K; in test [5], 1.35 K.

The values above are taken from PMC12136037, “Type II kinase inhibitors that target Parkinson’s disease–associated LRRK2” (Science Advances, 2025).
